Data from article PMC8619920, “New Polyesterified Ursane Derivatives from Leaves of Maesa membranacea and Their Cytotoxic Activity” (Molecules, 2021).

Key:
[1] = test system: DU145 human prostate carcinoma cells; test: Cytotoxicity, LDH assay, DU145 cells; assay type: cell-based; settings: Homo sapiens, DU-145, 24 h, 24 h treatment, 5–100 μg/mL
Protocol: (§1) Cytotoxic activity was tested on human cancer and normal cells, grouped in three panels, namely: prostate, skin and gastrointestinal. The prostate panel consisted of prostate cancer cell lines Du145 (ATCC HTB-81) and PC3 (ATCC CRL-1435), and prostate epithelial cells PNT-2 (ECACC 95012613). Melanoma cell lines A375 (ATCC CRL-1619) and HTB140 (ATCC Hs 294T) together with skin keratinocytes HaCaT (obtained as a kind gift of prof. Marta Michalik, Department of Cell Biology, Jagiellonian University, Kraków, Poland) were included into the skin panel. The gastrointestinal panel of cells comprised colon cancer cell lines Caco-2 (ATCC HTB-37) and HT29 (ATCC HTB-38). Du145 cells were grown in Modified Eagle’s Medium with low (1.0 g/L) glucose concentration, HT29, PC3 and PNT-2 cells in Dulbecco’s Modified Eagle’s Media: F12 HAM Nutrient Mixture, Caco-2 in Modified Eagle’s Medium with NEAA (no-essential amino acids) while melanoma cells and keratinocytes were maintained in Modified Eagle’s Medium with high (4.5 g/L) glucose concentration. The culture media (all supplied by Sigma-Aldrich Co.; St. Louis, MO, USA) contained antibiotics and 10% fetal bovine serum (FBS). All cultures were maintained at 37 °C, in a humidified, 5% CO2 containing, atmosphere.
(§2) The examined triterpenes were diluted in the culture media from freshly made stock solutions in MeOH (10 mg/mL) to the working concentrations (from 0 to 100 μg/mL).
(§3) Cell viability was determined as it was described previously. Cells suspended in the nutrient medium were transferred into 96-well microtiter plates (density 1.5 × 10^4 per well), and preincubated for 24 h (37 °C, 5% CO2). Then, the culture medium was replaced with the medium containing different concentrations of 1 or 2 (1–100 μg/mL). After 24 h of incubation, viability of the cells was determined using colorimetric lactate dehydrogenase (LDH) assay, in comparison to the controls to which corresponding aliquots of MeOH diluted with culture media were added. Cells grown in the medium without the tested compounds were used as control I (negative) and the positive control (control II) was obtained by incubation of the cells in the medium containing 1% Triton X-100. LDH released from the damaged cells into the cell culture medium was quantified by measuring the absorbance at 490 nm using Synergy II Biotek (BioTek Instruments, Winooski, VT, USA) microplate reader. Cytotoxicities of the examined compounds were calculated as follows: [(absorbance of the tested sample − absorbance of control I)/(absorbance of control II − absorbance of control I)] × 100. Results were means of three independent measurements (± SD). Doxorubicin (Ebewe Pharma GmbH., Unterach, Austria) was used as a reference cytostatic drug. The IC50 values were determined by plotting the percentage viability of the cells versus concentration and the adequate calculations made using AAT Bioquest website program (https://www.aatbio.com/tools/ic50-calculator, accessed on 29 October 2021).

[2] = Cytotoxicity, LDH assay, DU145 cells; assay type: cell-based, human; settings: human, DU145 prostate carcinoma cells, 24 h, mean ± SD of three, read-out: Cell viability DU145
Protocol: as §1, §2, §3

[3] = test system: HaCaT human immortalized keratinocytes; test: Cytotoxicity, LDH assay, HaCaT cells; assay type: cell-based; settings: Homo sapiens, HaCaT; 24 h treatment, 5–100 μg/mL
Protocol: as §1, §2, §3

[4] = Cytotoxicity, LDH assay, HaCaT cells; assay type: cell-based, human; settings: human, 24 h, mean ± SD of three, read-out: Cell viability HaCaT
Protocol: as §1, §2, §3

[5] = test system: A375 human malignant melanoma cells; test: Cytotoxicity, LDH assay, A375 cells; assay type: cell-based; settings: Homo sapiens, A-375; 24 h treatment, 5–100 μg/mL
Protocol: as §1, §2, §3

[6] = Cytotoxicity, LDH assay, A375 cells; assay type: cell-based, human; settings: human, A375 malignant melanoma cells, 24 h, mean ± SD of three, read-out: Cell viability A375
Protocol: as §1, §2, §3

[7] = Cytotoxicity, LDH assay, PNT-2 cells; assay type: cell-based, human; settings: human, 24 h, mean ± SD of three, read-out: Cell viability PNT-2
Protocol: as §1, §2, §3

[8] = test system: PNT-2 human normal prostate epithelium cells; test: Cytotoxicity, LDH assay, PNT-2 cells; assay type: cell-based; settings: Homo sapiens, PNT2; 24 h treatment, 5–100 μg/mL
Protocol: as §1, §2, §3

[9] = test system: HT29 human colon adenocarcinoma cells; test: Cytotoxicity, LDH assay, HT29 cells; assay type: cell-based; settings: Homo sapiens, HT-29; 24 h treatment, 5–100 μg/mL
Protocol: as §1, §2, §3

[10] = Cytotoxicity, LDH assay, HT29 cells; assay type: cell-based, human; settings: human, HT29 colon adenocarcinoma cells, 24 h, mean ± SD of three, read-out: Cell viability HT29
Protocol: as §1, §2, §3

[11] = test system: PC3 human prostate adenocarcinoma cells; test: Cytotoxicity, LDH assay, PC3 cells; assay type: cell-based
Protocol: as §1, §2, §3

[12] = Cytotoxicity, LDH assay, PC3 cells; assay type: cell-based, human; settings: human, PC3 prostate adenocarcinoma cells, 24 h, mean ± SD of three, read-out: Cell viability PC3
Protocol: as §1, §2, §3

[13] = Cytotoxicity, LDH assay, Caco-2 cells; assay type: cell-based, human; settings: human, Caco-2, 24 h, mean ± SD of three, read-out: Cell viability Caco-2
Protocol: as §1, §2, §3

With `CC(=O)OC1CC2(C)C(C(OC(C)=O)CC3(C)C2C(O)C=C2C4C(C)C(C)(O)CC(OC(C)=O)C4(C)CCC23C)C(C)(C)C1O` (stereo not drawn) [Compound 2, 2α,6β,22α-triacetoxy-urs-12-ene-3α,11α,20β-triol] the IC50 [1] was greater than 100 µg/mL, the viability at 24 h, 5 μg/mL ([2]; 5 μg/mL) was 97.3 ± 0.27% and the viability at 24 h, 10 μg/mL ([2]; 10 μg/mL) was 94.54 ± 0.58%. The viability at 24 h, 20 μg/mL ([2]; 20 μg/mL) was 90.07 ± 0.71%, the viability at 24 h, 30 μg/mL ([2]; 30 μg/mL) was 83.2 ± 1.24% and the viability at 24 h, 40 μg/mL ([2]; 40 μg/mL) was 77.1 ± 1.63%. For the same molecule, the viability at 24 h, 50 μg/mL ([2]; 50 μg/mL) was 68.6 ± 1.78%, the viability at 24 h, 100 μg/mL ([2]; 100 μg/mL) was 57.3 ± 1.9% and the IC50 [3] was greater than 100 µg/mL. It also gave a viability at 24 h, 100 μg/mL ([4]; HaCaT immortalized keratinocytes, 100 μg/mL) of 54.3 ± 1.78%, a viability at 24 h, 5 μg/mL ([4]; HaCaT keratinocytes, 5 μg/mL) of 96.84 ± 0.6% and a viability at 24 h, 10 μg/mL ([4]; HaCaT keratinocytes, 10 μg/mL) of 94.5 ± 1.55%. For the same molecule, the viability at 24 h, 20 μg/mL ([4]; HaCaT keratinocytes, 20 μg/mL) was 90.6 ± 0.66%, the viability at 24 h, 30 μg/mL ([4]; HaCaT keratinocytes, 30 μg/mL) was 82.8 ± 1.23% and the viability at 24 h, 40 μg/mL ([4]; HaCaT keratinocytes, 40 μg/mL) was 75.7 ± 1.76%. For the same molecule, the viability at 24 h, 50 μg/mL ([4]; HaCaT keratinocytes, 50 μg/mL) was 61.8 ± 1.55%, the IC50 [5] was greater than 100 µg/mL and the viability at 24 h, 5 μg/mL ([6]; 5 μg/mL) was 97.28 ± 0.33%. It also gave a viability at 24 h, 10 μg/mL ([6]; 10 μg/mL) of 95.28 ± 0.9%, a viability at 24 h, 20 μg/mL ([6]; 20 μg/mL) of 91.1 ± 1.39% and a viability at 24 h, 30 μg/mL ([6]; 30 μg/mL) of 87.3 ± 1.5%. It also gave a viability at 24 h, 40 μg/mL ([6]; 40 μg/mL) of 82.6 ± 1.36%, a viability at 24 h, 50 μg/mL ([6]; 50 μg/mL) of 76.2 ± 1.78% and a viability at 24 h, 100 μg/mL ([6]; 100 μg/mL) of 67.6 ± 1.48%. The viability at 24 h, 100 μg/mL ([7]; PNT-2 normal prostate epithelium cells, 100 μg/mL) was 93.56 ± 0.5%, the viability at 24 h, 5 μg/mL ([7]; PNT-2 prostate epithelial cells, 5 μg/mL) was 97.49 ± 0.79% and the viability at 24 h, 20 μg/mL ([7]; PNT-2 prostate epithelial cells, 20 μg/mL) was 96.3 ± 1.04%. The viability at 24 h, 30 μg/mL ([7]; PNT-2 prostate epithelial cells, 30 μg/mL) was 95.64 ± 0.65%, the viability at 24 h, 40 μg/mL ([7]; PNT-2 prostate epithelial cells, 40 μg/mL) was 95.37 ± 0.75% and the viability at 24 h, 50 μg/mL ([7]; PNT-2 prostate epithelial cells, 50 μg/mL) was 94.56 ± 0.32%. The IC50 [8] was greater than 100 µg/mL, the IC50 [9] was greater than 100 µg/mL and the viability at 24 h, 5 μg/mL ([10]; 5 μg/mL) was 95.76 ± 0.69%. The viability at 24 h, 10 μg/mL ([10]; 10 μg/mL) was 94.55 ± 0.84%, the viability at 24 h, 20 μg/mL ([10]; 20 μg/mL) was 90.05 ± 0.74% and the viability at 24 h, 30 μg/mL ([10]; 30 μg/mL) was 81.7 ± 1.56%. It also gave a viability at 24 h, 40 μg/mL ([10]; 40 μg/mL) of 74.8 ± 1.13%, a viability at 24 h, 50 μg/mL ([10]; 50 μg/mL) of 67.2 ± 1.25% and a viability at 24 h, 100 μg/mL ([10]; 100 μg/mL) of 56.9 ± 1.85%. The “Cell viability PC3” value ([11]; 100 μg/mL, 24 h, mean ± SD of three) was greater than 47%, the IC50 ([11]; Homo sapiens, PC-3, 24 h, 24 h treatment, 5–100 μg/mL) was greater than 50 µg/mL and the viability at 24 h, 5 μg/mL ([12]; 5 μg/mL) was 96.6 ± 1.35%. The viability at 24 h, 10 μg/mL ([12]; 10 μg/mL) was 94.1 ± 1.24%, the viability at 24 h, 20 μg/mL ([12]; 20 μg/mL) was 87.9 ± 1.54% and the viability at 24 h, 30 μg/mL ([12]; 30 μg/mL) was 79 ± 1.1%. It also gave a viability at 24 h, 40 μg/mL ([12]; 40 μg/mL) of 70.3 ± 1.6%, a viability at 24 h, 50 μg/mL ([12]; 50 μg/mL) of 59 ± 1.81% and a viability at 24 h, 100 μg/mL ([12]; 100 μg/mL) of 47.1 ± 2.64%. The viability at 24 h, 5 μg/mL ([13]; 5 μg/mL) was 94.7 ± 1.42%, the viability at 24 h, 10 μg/mL ([13]; 10 μg/mL) was 88.4 ± 0.92% and the viability at 24 h, 20 μg/mL ([13]; 20 μg/mL) was 82 ± 1.69%. For the same molecule, the viability at 24 h, 30 μg/mL ([13]; 30 μg/mL) was 74.7 ± 1.19%, the viability at 24 h, 40 μg/mL ([13]; 40 μg/mL) was 65.8 ± 1.25% and the viability at 24 h, 50 μg/mL ([13]; 50 μg/mL) was 61.1 ± 2.37%. It also gave a viability at 24 h, 100 μg/mL ([13]; 100 μg/mL) of 49.6 ± 1.49%.
